Here are results for three molecules from the NIST ThermoML archive (doi:10.1021/je500672d).

SMILES strings stand for the structures. Numbers after ± are expanded uncertainties.

The conditions of this series: 298.15 K; 101.33 kPa; Liquid; Vibrating tube method.

As a reminder, the mass density is mass per unit of volume.

Consider `COP(=O)([O-])OC.Cn1cc[n+](C)c1` [1,3-dimethylimidazolium dimethylphosphate], for which the mass density worked out at 1257.8 ± 1.4 kg/m3.
The figure for `COC(C)=O` [methyl ethanoate] is 927.7 ± 0.5 kg/m3; for `CO` [methanol] it is 786.4 ± 0.4 kg/m3.
